From US20210275514A1, “COMPOUNDS FOR USE IN TREATING KIDNEY DISORDERS” (Hoffmann-La Roche Inc., priority 2018, published 2021)

What was measured:
db/db mice = assay: DKD mouse model; format: in vivo; settings: 30 mg/Kg once daily; for albuminuria (albumin to creatinine ratio): vs db/db vehicle
Method: B6.BKS^db/db and B6.BKS^db/+ mice were purchased from the Jackson laboratory. At the age of 14 weeks, mice started receiving vehicle or the ABCA1 inducer Cpd A (30 mg/Kg) by oral gavage once daily for 4 weeks. Body weight measurements and urine collection was performed every week. Mice were sacrificed at 18 weeks old, blood was collected and tissues were processed and analyzed as described below.
Spot urine samples were collected for all mice at baseline and time of sacrifice. Urinary albumin and creatinine were determined using an albumin ELISA kit (Bethyl laboratories) and a colorimetric assay for creatinine determination (Stanbio). Albuminuria was calculated and expressed as μg of albumin divided by mg of creatinine. For diabetic mouse model, weight and glycaemia were measured on a bi-weekly basis.
Kidney cortex sections were embedded in OCT for further analysis of immunofluorescent staining and lipid droplet. Specifically, for determination of podocyte number per glomerular cross-section was determined using 4 μm-thick tissue sections that were cut and stained with WT1 antibody (1:200, Santa Cruz) and prolong GOLD DAPI mounting media. Images were acquired with confocal microscopy using a Leica SP5 inverted microscope with the 40× wet objective. 20 glomeruli per mouse were quantified.
Electron microscopy. For transmission electron microscopy kidney cortex sections were placed in 4% paraformaldehyde, 1% gluteraldehyde in 0.1 M phosphate buffer (pH 7.4). Foot processes were quantified per 1 μm of the glomerular basement membrane.
Renal lipids species assays. Kidney cortex sections were snap frozen and utilized for lipid extraction and cholesterol content determination. The tissue was homogenized in 2 mM potassium phosphate buffer in a glass douncer on ice. Lipids in 100 μl homogenate (˜5-10 mg tissue) were extracted with 1 ml hexane:isopropanol (3:2) for two sequential 30-minute extractions. The solvent containing lipids was then dried in Nitrogen atmosphere. Lipids were then reconstituted using isopropanol: NP-40 (9:1) and cholesterol content was quantified using the Amplex red cholesterol assay kit (Invitrogen) according to the manufacturers protocol. Triglycerides in lipid extracts were assayed with a colorimetric kit according to manufacturer's instructions (Cayman). Total cholesterol and cholesterol esters were assayed using an enzymatic fluorometric method. For total cholesterol renal lipid extracts were diluted in assay buffer (100 mM potassium phosphate, 50 mM NaCl, 5 mM cholic acid, 0.1% […], pH 7.4) and incubated with same buffer supplemented with a final concentration of 1 U/ml cholesterol oxidase, 1 U/ml cholesterol esterase, 1 U/ml horseradish peroxidase, and 75 μM Amplex Red. The reactions were incubated at 37° C. for 30 min in a black opaque 96 well plate (Greiner) and fluorescence was measured in a microplate reader (Spectramax i3X, Molecular Devices) using 530 nm excitation and 580 emission.
Cholesterol esters were assayed using a direct method described by Mizoguchi et al (Mizoguchi, 2004). Briefly 150 μl of FC decomposition reagent (45 U/ml bovine catalase and 1 U/ml cholesterol oxidase, in assay buffer described above) was added to 25 μl of sample containing up to 1 mM total cholesterol. Free cholesterol was allowed to decompose overnight at 37° C. and then 75 μl of 4× cholesterol ester detection reagent (1 U/ml cholesterol oxidase, 4 U/ml cholesterol esterase, 24 U/ml horseradish peroxidase, 300 μM Amplex Red) was added. Reaction was incubated at 37° C. for 30 min and fluorescence was measured as described above for total cholesterol. 1 mM of cholesterol and 5 μM of cholesterol oleate standards were included as internal controls to validate assay sensibility and specificity.
Pathological evaluation. Kidney cortex sections were paraffin-embedded and cut at 4 μm thick for periodic acid-Schiff (PAS) and HE. […]

129 Col4a3 KO mice = assay: Alport mouse model, late study of survival, treatment from 6 weeks of age; format: in vivo; settings: 100 mg/Kg/day oral gavage started in 6 weeks old mice
Method: 129 Col4a3^tm1/Dec/J mice were purchased from Jackson Labs and bred to generate Col4a3 KO mice. Mice were genotyped and selected using the primers: F ([…]), R ([…]) and Rm ([…]) in a PCR reaction (94 C for 5 min, followed by 30 cycles of 30 sec at 95 C, 15 sec at 60 C and 30 sec 72 C, and 1 min at 72 C). 129 Col4A3-KO mice were divided into two groups of 5 mice (males and females) each. At the age of 4 weeks, mice started receiving either vehicle or Cpd G (100 mg/Kg) by oral gavage once daily for 4 weeks. Body weight measurements and spot urine collection was performed once a week. Animals were sacrificed at the end of the treatment at the age of 8 weeks. A late study was also performed to evaluate if treatment of Col4A3-KO mice at time of established disease would prolong mice survival. In this study, mice were treated with Cpd G (100 mg/Kg/day) by daily oral gavage starting at 6 weeks of age and survival was assessed.

SMILES | Blood urea nitrogen (BUN) (db/db mice; 4 weeks) | cholesterol esters in kidney cortex (db/db mice; 4 weeks) | mesangial expansion (PAS stained sections) (db/db mice; 4 weeks) | podocyte foot process effacement (TEM) (db/db mice; 4 weeks) | podocyte number (WT1 positive cells) (db/db mice; 4 weeks) | albuminuria (albumin to creatinine ratio) (db/db mice; after four weeks of treatment (18 weeks)) | albuminuria (albumin to creatinine ratio) (db/db mice; after two weeks of treatment (16 weeks)) | increased life span (129 Col4a3 KO mice)
O=C(N[C@@H]1CCCC[C@H]1O)c1ccc(OCC(F)(F)F)c(-c2ccc(Cl)c(Cl)c2)n1 [Cpd A, 6-(3,4-Dichlorophenyl)-N-[(1R,2R)-2-hydroxycyclohexyl]-5-(2,2,2-trifluoroethoxy)pyridine-2-carboxamide] | significantly improved | significant reduction | improved | improved | improved | even further reduction | reduction in albuminuria | –
O=C(N[C@@H]1CCCC[C@H]1O)c1cnc(OCC(F)(F)F)c(-c2ccc(Cl)c(Cl)c2)c1 [Cpd G, 5-(3,4-dichloro-phenyl)-N-((1R,2R)-2-hydroxy-cyclohexyl)-6-(2,2,2-trifluoro-ethoxy)-nicotinamide] | – | – | – | – | – | – | – | ~15%
